Results as given in patent publication US10889812B2, “Short non-coding protein regulatory RNAs (sprRNAs) and methods of use” (University of Maryland, Baltimore, priority 2014, dated 2021).
Entries after “also recorded” stand apart in the source; their conditions may differ.

Columns and labels:
[1] = test system: p-ERM; experiment: p-ERM protein levels in HBE4 cells (Western blot); type: cell-based, human; details: following treatment
[2] = test system: HBE4 cells; experiment: Trans-well invasion assay; type: cell-based, human; details: HBE4, 12 hrs, vs Scr, after 15% downward adjustment
Source text: We then tested the potential impact of piR-L-163 in cell migration and invasion, two of the properties involving ERM's biological functions (Fehon, R. G., Mclatchey, A. I. & Bretscher, A. Organizing the cell cortex: the role of ERM proteins. Nat Rev Mol Cell Biol. 11, 276-287 (2010); Hunter, K. W. Ezrin, a key component in tumor metastasis. Trends Mol. Med. 10, 201-204 (2004); Luo, Y. et al. Recognition of CD146 as an ERM-binding protein offers novel mechanisms for melanoma cell migration. Oncogene 31, 306-321 (2013); Clucas, J. & Valderrama, F. ERM proteins in cancer progression. J Cell Sci. 128, 1253 (2015)).
Briefly, 24 hrs after transfection, 6×10^4 cells were placed in the upper chamber of Matrigel Invasion Chambers (BD Bioscience) with growth factor-free Keratinocyte-SFM and the bottom chamber were exposed to Keratinocyte-SFM medium supplemented with L-Glutamine, prequalified human recombinant EGF 1-53 and BPE. Invading cells were evaluated after 12 hrs according to the manufacturer's instruction. The numbers of invading cells were adjusted 15% downwards for Ant-163 treated cells or 15% upwards for piR-L-163 treated cells to compensate the differences for the proliferation rates.

[3] = test system: HBE4 cells; experiment: Quantitative cell migration assay; type: cell-based, human; details: HBE4, vs Scr control
Source text: (§1) For cell migration, we used two complementary assays. […] To compensate potential differences in the cell numbers among different treatment conditions, we seeded 10% less cells for Ant-163 treated HBE4 cells and 10% more cells for piR-L-163 transfected H1792 cells.
(§2) Two complimentary methods were used. For quantitative fluorescent dye assay, Innocyto™ Cell migration Assay kit (EMD Millipore) was used. Briefly, 24 hrs after treatment, 1×10^5 cells (10% less for Ant-163 treated cells or 10% more for piR-L-163 treated cells) were loaded to the upper chamber with growth factor-free Keratinocyte-SFM for (HBE4 cells) or serum-free DMEM (for H1792 cells) with the bottom chamber exposed to completed culture medium. Negative controls were used with 3 μM Latrunculin A. After 12 hrs incubation, fluorescence was measured using a fluorescence plate reader 485 nm (excitation) and 520 nm (emission) according to the manufacturer's instruction. For wound-healing assay, cells (24 hrs after treatment with different DNA or RNA oligonucleotides) were grown to confluence followed by scratching with a pipette tip to create a gap. The floating cells were removed and the gaps were monitored/photographed every 12 hrs.

[4] = test system: ERM proteins; experiment: Pull down with biotin-conjugated piR-L-163 from HBE4 cell lysates, LC-MS-MS; type: binding, human; details: vs Scr control RNA
Source text: Because of the unexpected cellular localizations of piR-L-163 during cell cycle progression, we suspected that piR-L-163 plays a biological role through interaction with proteins. To identify potential piR-L-163 interacting proteins, biotin-conjugated piR-L-163 RNA oligonucleotides were used as a bait to pull down cellular binding proteins in HBE4 cells.
For IP using piR-L-163, synthesized biotin labeled RNA oligonucleotides (/5′Biosg/[…]-3′) (SEQ ID NO:502) was used and scrambled RNA (/5′Biosg/[…]-3′) (SEQ ID NO:503) used as a control.
Protein extracts from 1×10^7 cells using HKMG lysis buffer (10 mM HEPES pH 7.9, 100 mM KCL, 5 mM MgCl2, 10% glycerol, 1 mM dithiothreitol, 0.1% NP40) with protease and phosphatase inhibitors (Roche) were incubated with 1 μg biotin-labeled RNA for 16 hr at 4° C. with rotation after pre-clearing with streptavidin beads, then coupled to 10 μl 50% of streptavidin agarose beads (Sigma-Aldrich). After incubation, the biotin-labeled oligonucleotide-coupled streptavidin beads were washed four times with HKMG lysis buffer. Samples were denatured in SDS protein loading buffer before running on a SDS-acrylamide gel.
The target band for mass spectrometry was performed. […]
The processed samples were analyzed using a nanoscale reverse-phase liquid chromatography using an Xtreme Simple nanoLC system (CVC/Q24 MicroTech). […]

[5] = test system: H1792 cells; experiment: Quantitative cell migration assay; type: cell-based, human; details: H1792, vs Scr or Ant-163
Source text: as §1, §2

Row | Substance | p-ERM protein levels [1] | invasion capability [2] | cell migration [3] | binding to ERM proteins (pull down) [4] | cell migration [5]
1 | Ant-163: DNA sequence antisense to piR-L-163, SEQ ID NO:496, 5′-GGTCAGAGAATCAAAGTAACATCATGATAT-3′ (DNA, backbone and methylation of C not given here) | not significantly changed | significantly increased invasion capability; also recorded: increased invading cells | significantly increased cell migration | – | –
2 | piR-L-163: sprRNA, SEQ ID NO:282; piRNA-L aligned to intron 10 of LAMC2; AUAUCAUGAUGUUACUUUGAUUCUCUGACC with 3′ 2′-O-methylation (listed as RNA, chemistry not fully specified; listed as Homo sapiens) | – | – | – | binds to ERM proteins | significantly decreased cell migration
